Laboratory results reported in US7214669B2, “Tetracycline derivatives and methods of use thereof” (Tetragenex Pharmaceuticals, Inc., priority 2001, dated 2007).

Assays:
Assay type in all cases: biochemical
Human recombinant MMP3 = Human recombinant MMP3 (Homo sapiens, UniProt P08254); experiment: MMP3 (Stromelysin 1) inhibition, 14C casein release; conditions: 37° C., 16 hours; read-out: MMP-3 inhibitory activity, IC50
Human recombinant MMP14 = Human recombinant MMP14 (Homo sapiens, UniProt P50281); experiment: MMP14 (MTI-MMP) inhibition, 14C collagen release; conditions: 35° C., 15 hours; read-out: MMP-14 inhibitory activity, IC50
Method: Protocol for Measuring MMP14 (MTI-MMP) Inhibition by Tetracycline Derivatives
MMP14 activity was determined by the release of soluble ^14C labelled collagen fragments from ^14C acetylated rat skin type I collagen (Methods in Enzymology 80 711, 1981).
• 100 μg ^14C labelled collagen (5–6000 dpm) • 50 mM Tris HCL pH 7.9 • 15 mM CaCl2 0.02% azide • Human recombinant MMP14 50–100 nM • ±Tetracycline (up to 1 mM) in a total volume of 300 μl.
Incubations were at 35° C. for 15 hours. Uncleaved collagen fibrils (which form within the first 10 minutes) were removed by centrifugation at 10,000 g 4° C. 10 minutes 200 μl supernatant were counted in Packard Opti Phase Supermix scintillation fluid using a scintillation counter. Only data derived from within the linear part of the assay (10–70% lysis of the collagen) were utilized. Based on percentage inhibition of the activity of MMP1 alone by a range of concentrations of each sample, the IC50 value for each tetracycline was calculated.

Human recombinant MMP9 = Human recombinant MMP9 (Homo sapiens, UniProt P14780); experiment: MMP9 (Gelatinase B) inhibition, 14C gelatin release; conditions: 37° C., 16 hours; read-out: MMP-9 inhibitory activity, IC50
Chain of Human recombinant MMP9 (P14780 94-707): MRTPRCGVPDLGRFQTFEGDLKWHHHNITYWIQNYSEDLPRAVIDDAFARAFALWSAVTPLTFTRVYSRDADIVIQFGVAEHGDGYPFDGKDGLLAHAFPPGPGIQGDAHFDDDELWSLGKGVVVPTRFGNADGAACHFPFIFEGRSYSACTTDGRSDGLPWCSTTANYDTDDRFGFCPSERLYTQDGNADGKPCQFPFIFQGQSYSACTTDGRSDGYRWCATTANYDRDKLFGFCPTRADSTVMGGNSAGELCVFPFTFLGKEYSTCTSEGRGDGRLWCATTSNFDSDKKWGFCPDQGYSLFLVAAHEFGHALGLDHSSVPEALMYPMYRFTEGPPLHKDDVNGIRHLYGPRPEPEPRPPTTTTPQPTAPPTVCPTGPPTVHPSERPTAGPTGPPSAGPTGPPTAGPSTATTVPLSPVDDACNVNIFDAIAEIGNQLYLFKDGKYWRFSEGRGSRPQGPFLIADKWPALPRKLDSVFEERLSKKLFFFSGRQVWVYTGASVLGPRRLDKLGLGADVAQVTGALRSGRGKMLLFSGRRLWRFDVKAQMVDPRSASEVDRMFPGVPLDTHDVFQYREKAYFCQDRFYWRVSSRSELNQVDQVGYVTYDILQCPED
Method: Protocol for Measuring MMP9 (Gelatinase B) Inhibition
MMP9 activity was determined by the release of trichloracetic acid, TCA soluble fragments from ^14C acetylated rat skin type I (Methods in Enzymology 248, 470, 1995. Biochem. J. 195, 1981)
• 100 μg ^14C labelled gelatin (collagen denatured 60° C. 20 min) • 50 mM Tris HCl pH 7.9 • 15 mM CaCl2, 0.02% azide • Human recombinant MMP9, 1.2–2 nM • ±Tetracycline (up to 1 mM) in a total volume of 250 μl.
Incubations were at 37° C. for 16 hours. The incubations were stopped by cooling the incubations and addition of 50 μl cold 90% (w/v) trichloracetic acid with careful mixing. TCA precipitation was allowed to proceed for 15 minutes at 4° C. prior to centrifugation at 10,000 g for 10 minutes at 4° C. 200 μl of the TCA supernatant was taken for the determination of radioactive content by scintillation counting (Packard Opti Phase Supermix scintillation fluid). Only data derived from within the linear part of the assay (10–70% lysis) were utilized. The percentage inhibition of MMP9 by each tetracycline concentration were plotted to derive the IC50 value.

MMP2 (Gelatinase A) = target: T1, MMP2 (Gelatinase A) (Homo sapiens, UniProt P08253); experiment: MMP2 (Gelatinase A) inhibition, 14C gelatin release; conditions: 37° C., 16 hours; read-out: MMP-2 inhibitory activity, IC50
T1 sequence (P08253 110-660): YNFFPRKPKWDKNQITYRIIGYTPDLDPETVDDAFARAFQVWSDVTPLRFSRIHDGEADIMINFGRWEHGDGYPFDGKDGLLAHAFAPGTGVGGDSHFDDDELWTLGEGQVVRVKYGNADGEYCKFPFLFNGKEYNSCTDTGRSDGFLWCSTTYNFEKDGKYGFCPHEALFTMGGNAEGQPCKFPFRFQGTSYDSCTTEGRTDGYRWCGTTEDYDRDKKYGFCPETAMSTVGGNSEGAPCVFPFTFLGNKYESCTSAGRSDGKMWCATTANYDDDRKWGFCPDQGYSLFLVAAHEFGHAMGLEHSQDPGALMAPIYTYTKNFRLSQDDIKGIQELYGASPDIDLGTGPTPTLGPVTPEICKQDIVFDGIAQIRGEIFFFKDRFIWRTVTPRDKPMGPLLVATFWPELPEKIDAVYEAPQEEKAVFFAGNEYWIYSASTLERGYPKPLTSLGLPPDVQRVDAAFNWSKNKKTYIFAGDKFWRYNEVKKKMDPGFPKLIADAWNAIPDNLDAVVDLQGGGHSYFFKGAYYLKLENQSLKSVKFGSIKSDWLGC

Human recombinant MMP1 = target: T2, Human recombinant MMP1 (Homo sapiens, UniProt P03956); experiment: MMP1 (Collagenase-1) inhibition, 14C collagen release; conditions: 35° C., 5 hours; read-out: MMP-1 inhibitory activity, IC50
T2 sequence (P03956 100-469): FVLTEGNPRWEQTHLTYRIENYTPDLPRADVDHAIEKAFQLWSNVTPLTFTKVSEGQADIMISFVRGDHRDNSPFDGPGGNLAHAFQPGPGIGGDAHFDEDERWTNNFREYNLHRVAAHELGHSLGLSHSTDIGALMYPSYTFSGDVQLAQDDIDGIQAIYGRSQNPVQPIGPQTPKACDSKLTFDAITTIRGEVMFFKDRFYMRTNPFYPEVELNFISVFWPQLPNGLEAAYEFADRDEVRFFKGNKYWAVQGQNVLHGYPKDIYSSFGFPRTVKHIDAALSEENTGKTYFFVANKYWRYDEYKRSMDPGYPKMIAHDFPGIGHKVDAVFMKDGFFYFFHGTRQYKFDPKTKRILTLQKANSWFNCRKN

Chain of Human recombinant MMP3 (P08254 100-477): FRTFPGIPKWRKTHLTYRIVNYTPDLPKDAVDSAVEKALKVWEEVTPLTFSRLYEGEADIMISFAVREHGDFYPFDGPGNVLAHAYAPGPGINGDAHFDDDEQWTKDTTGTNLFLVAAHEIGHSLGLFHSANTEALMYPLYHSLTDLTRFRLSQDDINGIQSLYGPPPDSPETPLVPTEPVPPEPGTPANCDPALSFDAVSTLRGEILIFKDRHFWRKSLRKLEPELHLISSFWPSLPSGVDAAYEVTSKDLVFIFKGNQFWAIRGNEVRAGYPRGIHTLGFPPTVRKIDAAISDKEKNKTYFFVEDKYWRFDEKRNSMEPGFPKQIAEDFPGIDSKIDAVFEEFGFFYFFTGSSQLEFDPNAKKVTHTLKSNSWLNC

SMILES | IC50 (Human recombinant MMP3) [µM] | IC50 (Human recombinant MMP14) [µM] | IC50 (Human recombinant MMP9) [µM] | IC50 (MMP2 (Gelatinase A)) [µM] | IC50 (Human recombinant MMP1) [µM]
CCCCN(CCCC)c1ccc(O)c2c1C(C)C1C(=C(O)C3(O)C(=O)C(C(N)=O)=C(O)C(N(C)C)C3C1O)C2=O (centres unmarked) [Compound 17, 7-Di-n-Butylamino-6-deoxy-5-hydroxytetracycline H2SO4] | 350 | 98 | 110 | > 1000 | 122
CC(=O)Nc1cc([N+](=O)[O-])c(O)c2c1C(C)C1C(=C(O)C3(O)C(=O)C(C(N)=O)=C(O)C(N(C)C)C3C1O)C2=O (centres unmarked) [Compound 22, 7-Acetamido-9-nitro-6-deoxy-5-hydroxytetracycline H2SO4] | 462 | 459 | 341 | 254 | 396
CC1c2c([N+]#N)cc(C(C)(C)C)c(O)c2C(=O)C2=C(O)C3(O)C(=O)C(C(N)=O)=C(O)C(N(C)C)C3C(O)C21 (centres unmarked) [Compound 43, 9-tertbutyl-6-deoxy-5-hydroxytetracycline-7-diazonium H2SO4] | 174 | – | 319 | 2480 | 600
CC(=O)Nc1ccc(O)c2c1C(C)C1C(=C(O)C3(O)C(=O)C(C(N)=O)=C(O)C(N(C)C)C3C1O)C2=O (centres unmarked) [Compound 23, 7-Acetamido-6-deoxy-5-hydroxytetracycline H2SO4] | > 1000 | > 1000 | > 1000 | 306 | > 1000
CC(=O)Nc1cc(N=[N+]=[N-])c(O)c2c1C(C)C1C(=C(O)C3(O)C(=O)C(C(N)=O)=C(O)C(N(C)C)C3C1O)C2=O (centres unmarked) [Compound 42, 7-Acetylamino-9-azido-6-deoxy-5-hydroxy-tetracycline] | 1560 | 428 | 405 | 606 | –
CC1c2c(N)cc([N+](=O)[O-])c(O)c2C(=O)C2=C(O)C3(O)C(=O)C(C(N)=O)=C(O)C(N(C)C)C3C(O)C21 (centres unmarked) [Compound 14, 7-Amino-6-deoxy-5-hydroxy-9-nitrotetracycline H2SO4] | > 1000 | 386 | – | – | 279
